Data on five compounds can be found in the supplement of paper PMC10307832.

The first experiment has as its system SK-MES-1. The experiment can be described thus: relative viability (nuclei count vs DMSO), 5 days (fraction); higher = more cells survive. The conditions noted are these: first compound 0.08 µM. The gist of the method: (§1)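 Relative viability was taken as the ratio of nuclei in treated wells to nuclei in vehicle wells. Lung cancer cell lines in 1536-well plates received compounds by pin tool one day after seeding, either one drug alone or a fixed anchor-drug dose plus five library-drug doses (not always all listed) in √10 steps. Nuclei were counted on 4× images after 5 days of treatment, and values are medians of duplicate plates.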
The compound `CCCCCCCCCCCC1=C(O)C(=O)C=C(O)C1=O` [Embelin] + CS(=O)(=O)CCNCc1ccc(-c2ccc3ncnc(Nc4ccc(OCc5cccc(F)c5)c(Cl)c4)c3c2)o1 [Lapatinib] (partner 2 µM) returned a relative viability of 0.496.
On the same count and under the same terms, to `CCCCCCCCCCCC1=C(O)C(=O)C=C(O)C1=O` [Embelin] + C[C@@H](Oc1cc(-c2cnn(C3CCNCC3)c2)cnc1N)c1c(Cl)ccc(F)c1Cl [Crizotinib] (partner 1 µM) belongs 1.01.

Staying with this experiment, now noted: first compound 0.8 µM.
`CCCCCCCCCCCC1=C(O)C(=O)C=C(O)C1=O` [Embelin] + O=C(CCCCCCC(=O)Nc1ccccc1)NO [Vorinostat] (partner 1 µM) had a relative viability of 1.2.
Same read-out and setting: to `CCCCCCCCCCCC1=C(O)C(=O)C=C(O)C1=O` [Embelin] + C[C@]1(O)C[C@@H](c2nc(-c3ccc4ccc(-c5ccccc5)nc4c3)c3c(N)nccn32)C1 [Linsitinib] (partner 1 µM) belongs 1.11; to `CCCCCCCCCCCC1=C(O)C(=O)C=C(O)C1=O` [Embelin] + CS(=O)(=O)CCNCc1ccc(-c2ccc3ncnc(Nc4ccc(OCc5cccc(F)c5)c(Cl)c4)c3c2)o1 [Lapatinib] (partner 2 µM), 0.496; to `CCCCCCCCCCCC1=C(O)C(=O)C=C(O)C1=O` [Embelin] + C[C@@H](Oc1cc(-c2cnn(C3CCNCC3)c2)cnc1N)c1c(Cl)ccc(F)c1Cl [Crizotinib] (partner 1 µM), 1.1.

The experiment is the same for the next values; noted with them: first compound 2.53 µM.
Take `CCCCCCCCCCCC1=C(O)C(=O)C=C(O)C1=O` [Embelin] + O=C(CCCCCCC(=O)Nc1ccccc1)NO [Vorinostat] (partner 1 µM): the relative viability amounted to 1.1.
The compound `CCCCCCCCCCCC1=C(O)C(=O)C=C(O)C1=O` [Embelin] + C[C@]1(O)C[C@@H](c2nc(-c3ccc4ccc(-c5ccccc5)nc4c3)c3c(N)nccn32)C1 [Linsitinib] (partner 1 µM) returned a relative viability of 1.17.
The same measure, in the same setting: to `CCCCCCCCCCCC1=C(O)C(=O)C=C(O)C1=O` [Embelin] + CS(=O)(=O)CCNCc1ccc(-c2ccc3ncnc(Nc4ccc(OCc5cccc(F)c5)c(Cl)c4)c3c2)o1 [Lapatinib] (partner 2 µM) belongs 0.516; to `CCCCCCCCCCCC1=C(O)C(=O)C=C(O)C1=O` [Embelin] + C[C@@H](Oc1cc(-c2cnn(C3CCNCC3)c2)cnc1N)c1c(Cl)ccc(F)c1Cl [Crizotinib] (partner 1 µM), 0.952.

The experiment is the same for the next values; noted with them: first compound 8 µM.
`CCCCCCCCCCCC1=C(O)C(=O)C=C(O)C1=O` [Embelin] + O=C(CCCCCCC(=O)Nc1ccccc1)NO [Vorinostat] (partner 1 µM) returned a relative viability of 0.898.
The compound `CCCCCCCCCCCC1=C(O)C(=O)C=C(O)C1=O` [Embelin] + C[C@]1(O)C[C@@H](c2nc(-c3ccc4ccc(-c5ccccc5)nc4c3)c3c(N)nccn32)C1 [Linsitinib] (partner 1 µM) showed a relative viability of 1.04.
As for `CCCCCCCCCCCC1=C(O)C(=O)C=C(O)C1=O` [Embelin] + CS(=O)(=O)CCNCc1ccc(-c2ccc3ncnc(Nc4ccc(OCc5cccc(F)c5)c(Cl)c4)c3c2)o1 [Lapatinib] (partner 2 µM), the relative viability was found to be 0.477.
On the same count and under the same terms, to `CCCCCCCCCCCC1=C(O)C(=O)C=C(O)C1=O` [Embelin] + C[C@@H](Oc1cc(-c2cnn(C3CCNCC3)c2)cnc1N)c1c(Cl)ccc(F)c1Cl [Crizotinib] (partner 1 µM) belongs 1.11.

The test system of another experiment is EKVX. The description is as above. The conditions noted are these: first compound 0.08 µM. The gist of the method:
as §1
In the case of `CCCCCCCCCCCC1=C(O)C(=O)C=C(O)C1=O` [Embelin] + O=C(CCCCCCC(=O)Nc1ccccc1)NO [Vorinostat] (partner 1 µM), the relative viability is 0.744.
On the same count and under the same terms, to `CCCCCCCCCCCC1=C(O)C(=O)C=C(O)C1=O` [Embelin] + C[C@]1(O)C[C@@H](c2nc(-c3ccc4ccc(-c5ccccc5)nc4c3)c3c(N)nccn32)C1 [Linsitinib] (partner 1 µM) belongs 0.967; to `CCCCCCCCCCCC1=C(O)C(=O)C=C(O)C1=O` [Embelin] + CC(C)C[C@H](NC(=O)[C@H](Cc1ccccc1)NC(=O)c1cnccn1)B(O)O [Bortezomib] (partner 0.002 µM), 0.976; to `CCCCCCCCCCCC1=C(O)C(=O)C=C(O)C1=O` [Embelin] + CS(=O)(=O)CCNCc1ccc(-c2ccc3ncnc(Nc4ccc(OCc5cccc(F)c5)c(Cl)c4)c3c2)o1 [Lapatinib] (partner 2 µM), 0.197.
Regarding `CCCCCCCCCCCC1=C(O)C(=O)C=C(O)C1=O` [Embelin] + C[C@@H](Oc1cc(-c2cnn(C3CCNCC3)c2)cnc1N)c1c(Cl)ccc(F)c1Cl [Crizotinib] (partner 1 µM), the relative viability came out at 0.78.

Still in this experiment, the particulars now being: first compound 0.8 µM.
As to `CCCCCCCCCCCC1=C(O)C(=O)C=C(O)C1=O` [Embelin] + O=C(CCCCCCC(=O)Nc1ccccc1)NO [Vorinostat] (partner 1 µM), the relative viability turned out to be 0.962.
For the compound `CCCCCCCCCCCC1=C(O)C(=O)C=C(O)C1=O` [Embelin] + C[C@]1(O)C[C@@H](c2nc(-c3ccc4ccc(-c5ccccc5)nc4c3)c3c(N)nccn32)C1 [Linsitinib] (partner 1 µM), the relative viability came to 1.09.
`CCCCCCCCCCCC1=C(O)C(=O)C=C(O)C1=O` [Embelin] + CC(C)C[C@H](NC(=O)[C@H](Cc1ccccc1)NC(=O)c1cnccn1)B(O)O [Bortezomib] (partner 0.002 µM) gave a relative viability of 0.936.
On the same count and under the same terms, to `CCCCCCCCCCCC1=C(O)C(=O)C=C(O)C1=O` [Embelin] + CS(=O)(=O)CCNCc1ccc(-c2ccc3ncnc(Nc4ccc(OCc5cccc(F)c5)c(Cl)c4)c3c2)o1 [Lapatinib] (partner 2 µM) belongs 0.528; to `CCCCCCCCCCCC1=C(O)C(=O)C=C(O)C1=O` [Embelin] + C[C@@H](Oc1cc(-c2cnn(C3CCNCC3)c2)cnc1N)c1c(Cl)ccc(F)c1Cl [Crizotinib] (partner 1 µM), 1.05.

Staying with this experiment, now noted: first compound 2.53 µM.
`CCCCCCCCCCCC1=C(O)C(=O)C=C(O)C1=O` [Embelin] + O=C(CCCCCCC(=O)Nc1ccccc1)NO [Vorinostat] (partner 1 µM) showed a relative viability of 0.832.
`CCCCCCCCCCCC1=C(O)C(=O)C=C(O)C1=O` [Embelin] + C[C@]1(O)C[C@@H](c2nc(-c3ccc4ccc(-c5ccccc5)nc4c3)c3c(N)nccn32)C1 [Linsitinib] (partner 1 µM) displayed a relative viability of 1.2.
On to `CCCCCCCCCCCC1=C(O)C(=O)C=C(O)C1=O` [Embelin] + CC(C)C[C@H](NC(=O)[C@H](Cc1ccccc1)NC(=O)c1cnccn1)B(O)O [Bortezomib] (partner 0.002 µM), for which the relative viability came out at 1.14.
In turn, `CCCCCCCCCCCC1=C(O)C(=O)C=C(O)C1=O` [Embelin] + CS(=O)(=O)CCNCc1ccc(-c2ccc3ncnc(Nc4ccc(OCc5cccc(F)c5)c(Cl)c4)c3c2)o1 [Lapatinib] (partner 2 µM) registered a relative viability of 0.215.
